# In PubChem BioAssay (NCI):
#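 The compound was tested at five concentrations on cells cultured in 96-well plates, with a 48-hour exposure period. The concentration for 50% growth inhibition is given as GI50. The concentration for full growth arrest is given as TGI.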
# Experiments:
# Test in all cases: NCI-60 cell line screen, 48 h
# CAKI-1 renal = system: CAKI-1 renal
# DU-145 prostate = system: DU-145 prostate
# HT29 colon = system: HT29 colon
# M14 melanoma = system: M14 melanoma
# OVCAR-3 ovarian = system: OVCAR-3 ovarian
# PC-3 prostate = system: PC-3 prostate
# SF-539 CNS = system: SF-539 CNS
# SK-MEL-28 melanoma = system: SK-MEL-28 melanoma
# SK-MEL-5 melanoma = system: SK-MEL-5 melanoma
# SW-620 colon = system: SW-620 colon
# SNB-75 CNS = system: SNB-75 CNS
SMILES,TGI (CAKI-1 renal) [µM],TGI (DU-145 prostate) [µM],TGI (HT29 colon) [µM],TGI (M14 melanoma) [µM],TGI (OVCAR-3 ovarian) [µM],TGI (PC-3 prostate) [µM],TGI (SF-539 CNS) [µM],TGI (SK-MEL-28 melanoma) [µM],TGI (SK-MEL-5 melanoma) [µM],TGI (SW-620 colon) [µM],TGI (SNB-75 CNS) [µM],GI50 (CAKI-1 renal) [µM],GI50 (DU-145 prostate) [µM],GI50 (OVCAR-3 ovarian) [µM],GI50 (PC-3 prostate) [µM],GI50 (SF-539 CNS) [µM],GI50 (SK-MEL-28 melanoma) [µM],GI50 (SNB-75 CNS) [µM],GI50 (SW-620 colon) [µM]
COc1ccc(/C=C2\CN(C)CC3=C2OC(N)=C(C#N)C3c2ccc(OC)cc2)cc1 (stereo unspecified),> 100,> 100,> 100,> 100,> 93.1,> 53.1,> 100,> 100,> 100,> 100,–,–,–,–,–,–,–,–,–
Cn1c(C(C#N)c2cc(Cl)ncn2)nc2ccccc21 (stereo unspecified),> 100,> 100,> 100,> 100,> 100,–,> 100,> 100,> 100,> 100,> 100,–,–,–,–,–,–,–,–
OC1C(O)C(O)C(O)C(O)C1O (stereo unspecified),–,> 1000,> 1000,> 1000,> 1000,> 1000,> 1000,> 1000,> 1000,> 1000,> 1000,–,–,–,–,–,–,–,–
CC12O[C@H](c3ccccc3)[C@H](c3ccccc3)N1C(=O)C1(C(=O)OCc3ccccc3)CC12 (stereo partly specified),> 100,–,> 100,> 100,> 100,–,–,–,> 100,> 100,> 100,–,–,–,–,–,–,–,–
NC(=O)N/N=C(\Cc1nc2ccc(C(=O)c3ccccc3)cc2[nH]c1=O)C(=O)Nc1ccc(Br)cc1,> 100,–,> 100,> 100,> 100,–,> 100,> 100,> 100,> 100,> 100,–,–,–,–,–,–,–,–
OCCSCCCSCCO,–,> 100,> 100,> 100,> 100,> 100,> 100,> 100,> 100,> 100,> 100,–,–,–,–,–,–,–,–
CC(=O)NNc1nc(C)c(C(/C=C/c2ccc(Cl)cc2)=N\NS(=O)(=O)c2ccc(C)cc2)s1,> 100,–,> 100,> 100,> 100,–,> 100,> 100,> 100,> 100,> 100,–,–,–,–,–,–,–,–
CN1N=C2c3ccccc3CC[C@H]2C1c1ccccc1 (stereo partly specified),–,–,> 100,> 100,> 100,–,> 100,> 100,–,> 100,–,–,–,–,–,–,–,–,–
N#CCCC(CC#N)N1CCN(CCO)CC1 (stereo unspecified),–,> 100,> 100,> 100,–,–,> 100,> 100,> 100,> 100,> 100,–,–,–,–,–,–,–,–
Cc1ccc(S(=O)(=O)N2CCSCCSCCN(S(=O)(=O)c3ccc(C)cc3)CCN(S(=O)(=O)c3ccc(C)cc3)CC2)cc1,> 100,> 100,> 100,> 100,> 100,> 100,> 100,> 100,> 100,> 100,–,–,–,–,–,–,–,–,–
CN(C)CCNCc1c2ccccc2c(CNCCN(C)C)c2ccccc12,–,–,40.6,–,> 100,–,> 73.6,> 100,17.9,> 73.6,> 100,–,–,–,–,–,–,–,–
O=c1ccc2ccccc2o1,–,–,> 100,> 100,> 100,–,> 100,> 100,–,> 100,> 100,–,–,–,–,–,–,–,–
CN1CCN(CC(=O)Nc2ccc3ncnc(Nc4ccc(Oc5cccc(C(F)(F)F)c5)c(Cl)c4)c3c2)CC1,2.49,2.71,–,–,2.87,3.26,2.99,3.16,–,3.25,2.67,1.24,1.4,1.49,1.69,1.6,1.71,1.35,1.72
CC1=C/C(=N/N2C(=O)/C(=C/c3ccc(Cl)cc3)N=C2c2ccccc2)CC(C)(C)C1,> 100,–,> 100,> 100,–,> 100,> 100,> 100,> 100,> 100,93.6,–,–,–,–,–,–,–,–
Cc1ccc(NC(=O)CC(=O)n2nc(-c3ccccc3)c(N=Nc3ccc(Cl)cc3)c2-c2ccccc2)cc1,> 100,–,40.4,> 100,> 100,–,85.6,> 100,> 100,31,70.9,–,–,–,–,–,–,–,–
CN(C)c1ccc(/C=C/c2sc3ccc4ccccc4c3[n+]2C)cc1,0.627,–,–,–,–,1.71,–,–,–,–,–,0.211,–,–,0.315,–,–,–,–
COC(=O)C1=NN2c3ccccc3C(=O)OCCC2C1 (stereo unspecified),> 100,> 100,> 100,–,> 100,> 100,> 100,> 100,> 100,> 100,> 100,–,–,–,–,–,–,–,–
